In patent EP1024807B1, “USE OF THE COMPOUND 2-METHOXYPHENYL-1-METHYL-5P-METHYLBENZOYL-PYRROL-2-ACETAMIDO ACETATE FOR THE PRODUCTION OF AN ANTI-INFLAMMATORY DRUG WITH PREVENTION OF GASTRIC HYPERSECRETION AND RENAL IMPAIRMENT” (MEDOSAN Ricerca S.r.l., priority 1997, dated 1999):
“Also recorded” adds a separate entry of the source.

How the values were obtained:
[1] = system: gastric acid secretion; experiment: Gastric acid secretion in the rat; type: in vivo
Excerpt: On the basis of the above series of observations, we decided to study the pharmacological behaviour of a number of widely used NSAIDs (including amtolmetin guacyl) towards the gastric mucosa in the rat, as previously described. […] The first hypothesis was that we were deling with an anti-H2 drug, given the fact that its potency could be compared with that of cimetidine.
The introduction of a guaiacol moiety into the amtolmetin guacyl molecule led to the insertion of a vanilloid radical which confers gastroprotective properties to the molecule.

[2] = system: gastric bicarbonate secretion; experiment: Gastric bicarbonate secretion after stimulation with histamine; type: in vivo, rat; settings: fig. 6
[3] = system: Cynomolgous monkey; experiment: Chronic oral administration for 52 weeks, gastric damage; type: in vivo
[4] = system: rabbit; experiment: Fertility, embryotoxicity and teratogenicity studies; type: in vivo
[5] = system: osteoarthritis; experiment: Clinical trials in osteoarthritis; type: in vivo, man; settings: 550 patients, mean 80 days; versus seven reference NSAIDs; listed as Amtolmetin guacyl
Excerpt: In this degenerative disease amtolmetin guacyl was compared with diclofenac, diflunisal, flurbiprofen, ibuprofen, ketoprofen, naproxen and tolmetin.

[6] = system: Saccharomycetes D4; experiment: Mitotic conversion test; type: cell-based
[7] = system: Rats; experiment: Adjuvant arthritis (joint diameter and patellar bone mass); type: in vivo; settings: for Swelling Diameter difference (L-R) / Joint diameter (mm) Left / Joint diameter (mm) Right: day 0-3; for Joint diameter (mm) Left / Bone mass (mg) Left: left = arthritic joint; for Joint diameter (mm) Right / Bone mass (mg) Right: right = saline control joint; for % Change: ([left-right]/right)X100; for Bone loss Left-Right / Bone mass (mg) Left / Bone mass (mg) Right: patellar bone
Procedure: The drugs were administered daily by oral gavage for 4 days (day 0-3); piroxicam and MED 15 were dissolved in 5% Gum arabic + 0.01% Tween 80, and administered in a volume of 0.5ml. Piroxicam was administered as 3mg/kg and MED 15 was administered as 25, 50 and 100mg/kg doses. Table 8 bis illustrating dosage regimes. L=left stifle joint, R=Right stifle joint.
Under halothane anaesthesia, rats received 200µg of heat-killed finely ground Mycobactyerium tubercolosis in 25µl (80mg/10ml sterile saline) injected intra-articulary into the left stifle joint. The contralateral joint received 25µl 0.9% sterile saline. Control animals received 25µl of 0.9% sterile saline in both knees. SGE 50µl microsyringes with a volume lock calibrated at 25µl were used with 30G stainless steel needles. Solutions were prepared sterile, and aseptic technique was used throughout, with sterilisation of syringes between groups.
The rats were killed by carbon dioxide suffocation. The body weight was noted and the skin overlying the stifle joints was divided and the joint diameters assessed in mm using Mitutoyo vernier callipers (530-312, 0.02mm).
The patellae were dissected, weighed (Sartorius, 0.01mg) and then immersed in 1ml digestion buffer (see below) to remove soft tissue.
Digestive buffer was prepared fresh to the following formula; disodium hydrogen orthophosphate 20mM, EDTA 1mM and diothiothreitol at 2mM. Papain (EC 3.4.22.2) was added at a concentration of 6U/ml. Each patella was digested in 1ml of digestive buffer at 56°C for 4 hours. The residual paterllar bones were dried (100°C 24 hours) and weighed (Sartorius 0.01mg).
Results are presented as follows: left and right parameter alone, the difference between arthritic and contralateral control joint (left-right); and % difference between arthritic and control joints ([left-right]/right]X100).
Calculations were carried out using the spreadsheet program Lotus 123. Statistical comparisons were made between the absolute differences using INSTAT Mann Whitney unpaired two-tailed statistical test.

[8] = biological target: T1, COX2 (cyclooxygenase 2) (Rattus norvegicus, UniProt P35355); experiment: Pharmacological studies in rats: cyclooxygenase inhibition; settings: in vivo
T1 construct: the pharmacological studies conducted in rats; from tissue; host or cells: rat (in vivo; tissue not given)
T1 sequence (P35355 18-604): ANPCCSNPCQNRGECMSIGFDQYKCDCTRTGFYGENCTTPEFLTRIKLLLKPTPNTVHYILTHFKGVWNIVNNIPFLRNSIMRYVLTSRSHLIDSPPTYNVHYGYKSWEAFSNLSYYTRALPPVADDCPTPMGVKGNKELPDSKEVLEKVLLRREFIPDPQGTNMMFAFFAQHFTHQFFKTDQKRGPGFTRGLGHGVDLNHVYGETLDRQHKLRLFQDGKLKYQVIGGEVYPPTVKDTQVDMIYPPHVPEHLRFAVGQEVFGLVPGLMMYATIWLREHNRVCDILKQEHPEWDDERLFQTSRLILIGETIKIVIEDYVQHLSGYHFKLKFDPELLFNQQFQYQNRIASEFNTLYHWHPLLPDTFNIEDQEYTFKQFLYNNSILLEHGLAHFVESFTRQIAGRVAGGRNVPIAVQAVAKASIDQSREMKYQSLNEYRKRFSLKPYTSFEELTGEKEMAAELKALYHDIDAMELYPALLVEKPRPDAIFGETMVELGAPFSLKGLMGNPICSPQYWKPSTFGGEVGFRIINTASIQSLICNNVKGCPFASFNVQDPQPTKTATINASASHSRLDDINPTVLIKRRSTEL

[9] = system: gastric PGE2; experiment: Effect on gastric PGE2 in the rat; type: in vivo
Excerpt: Moreover, as with all the NSAIDs currently aveilable, it inhibits gastric PGE2 in the rat, albeit to a lesser degree than ASA (Table 7).

Compound: COc1ccccc1OC(=O)CNC(=O)Cc1ccc(C(=O)c2ccc(C)cc2)n1C [MED 15, 2-methoxyphenyl-1-methyl-5p-methylbenzoylpyrrol-2-acetamido acetate]
- basal acid secretion ([1]; basal, unstimulated): fails to modify
- effect on gastric acid ([1]; rat, in vivo): reduction of gastric acid
- activity on gastric secretion after CGRP antagonist ([1]; with CGRP8-37, peptone-stimulated, fig. 14): blockage
- effect on gastric acid secretion after capsaicin receptor antagonist ([1]; with capsazepine, peptone-stimulated, fig. 16): inhibited by the capsazepine antagonist
- increase in bicarbonate production [2]: 67%
- gastric damage [3]: absence of gastric damage
- fertility, embriotoxicity and teratogenicity [4]: safety
- Evaluation of antiphlogistic activity [5]: statistically significant more rapid and more marked activity; also recorded: Amtolmetin guacyl was more rapid and more active in a statistically significant manner in osteoarthritis compared to the reference NSAIDs
- mitotic conversion [6]: absence of amtolmetin guacyl-related damage
- Swelling Diameter difference (L-R) ([7]; 25mg/kg daily oral): 2.22 mm
- Joint diameter (mm) Left ([7]; 25mg/kg daily oral): 11.57 mm
- Joint diameter (mm) Right ([7]; 25mg/kg daily oral): 9.35 mm
- Swelling Diameter difference (L-R) ([7]; 50mg/kg daily oral): 2.06 mm
- Joint diameter (mm) Left ([7]; 50mg/kg daily oral): 10.95 mm
- Joint diameter (mm) Right ([7]; 50mg/kg daily oral): 8.88 mm
- Swelling Diameter difference (L-R) ([7]; 100mg/kg daily oral): 1.38 mm
- Joint diameter (mm) Left ([7]; 100mg/kg daily oral): 10.26 mm
- Joint diameter (mm) Right ([7]; 100mg/kg daily oral): 8.88 mm
- protective effect against bone loss compared to piroxicam ([7]; dose of 100mg/kg): not significantly different to piroxicam
- % Change ([7]; joint diameter, 25mg/kg daily oral): 24.04%
- % Change ([7]; joint diameter, 50mg/kg daily oral): 23.36%
- % Change ([7]; joint diameter, 100mg/kg daily oral): 15.71%
- % Change ([7]; patellar bone mass, 25mg/kg daily oral): 45.45%
- % Change ([7]; patellar bone mass, 50mg/kg daily oral): 40.55%
- % Change ([7]; patellar bone mass, 100mg/kg daily oral): 31.85%
- protection against bone loss ([7]; patellar bone mass, arthritic groups): dose dependent protective effect
- Bone loss Left-Right ([7]; 25mg/kg daily oral): -1.94 mg
- Bone mass (mg) Left ([7]; 25mg/kg daily oral): 2.33 mg
- Bone mass (mg) Right ([7]; 25mg/kg daily oral): 4.27 mg
- Bone loss Left-Right ([7]; 50mg/kg daily oral): -1.69 mg
- Bone mass (mg) Left ([7]; 50mg/kg daily oral): 2.49 mg
- Bone mass (mg) Right ([7]; 50mg/kg daily oral): 4.18 mg
- Bone loss Left-Right ([7]; 100mg/kg daily oral): -1.38 mg
- Bone mass (mg) Left ([7]; 100mg/kg daily oral): 2.97 mg
- Bone mass (mg) Right ([7]; 100mg/kg daily oral): 4.34 mg
- inhibition of COX2 [8]: inhibition
- %inhibition ([9]; gastric PGE2 versus controls): 69.9%
- PGE2 (ngtg^Δ tissue)±S.E. ([9]; gastric tissue, rat, controls 108.7±23.9): 32.7±8.5 nanograms for gram of tissue
